Measurements published in US8835617B2, “Polynucleotides encoding a human TRIM-Cyp fusion polypeptide, compositions thereof, and methods of using same” (priority 2008, dated 2014).
Values joined by “and” are separate entries in the source; they are usually repeats but may differ in a detail not shown here. Identical values can stand only once. Like-named read-outs stand apart in the source and are kept apart here. Marks after values point to notes of the source that are not given here.

Tests used:
HIV-1 [1] = settings: U937, CEM-SS, SUP-T1, H9, HUH-7, CRFK, 293T
Text: Since the objective was to engineer a fully human HIV-1 restriction factor, hCypA was the fused at 10 different positions along the length of hT5α (FIG. 44A).

HIV-1NL4-3 [2] = test: HIV-1 challenge of CD4+ T cell cultures with <25% transduced cells; type: cell-based
Text: These conditions would be more realistic of hT5Cyp therapy in patients. […] The survival advantage of CD4^+ T cell becomes apparent when analyzing the viability of the cells by forward versus side-scatter and gating on live lymphocytes; a method that had to be adopted since the cells were fixed in paraformaldehyde for flow cytometry analysis.

HIV-1NL4-3 [3] = test: hCD4+-Rag2-/-γc-/- mice infected with HIV-1 four to five days after adoptive transfer; type: in vivo
Text: Age-matched, 6-10 week-old Rag2^−/−γc^−/− mice were conditioned with clodronate and sublethal irradiation (van Rijn et al., 2003), and injected intraperitoneally with 2.5×10^6 transduced CD4^+ T cells (FIG. 68A,B).
(§1) Rag2^−/−γc^−/− mice on a BALB/c background (provided by M. Ito; Central Institute for Experimental Animals, Kawasaki, Japan) were bred and maintained under specific pathogen-free conditions in accordance with the guidelines of the animal facility at the Institute for Research in Biomedicine. CL2 MBP (clodronate) was from Roche Diagnostics (Mannheim, Germany). Preparation of liposomes containing CL2 MBP was done as described previously (Van Rooijen and Sanders, 1994). 6-10 week-old mice received 100 ul of clodronate liposomes intraperitoneally (i.p.) 24 hours prior to irradiation using a single sublethal dose of 4.0 Gray (Gy) from a Cesium 137 source (Biobeam 8000, STS GmbH, Braunschweig, Germany) at 3.75 Gy/min. […] CD4^+ T cell engraftment and maintenance in mice was measured by flow cytometry. To obtain peripheral blood cells and plasma, mice were bled from the retro-orbital venous sinus under anesthesia and red blood cells were lysed. When sacrificed, single cell suspensions from organs were prepared. For FACS analysis monoclonal antibodies against the following antigens were used: CD3 (UCHT1), CD4 (13B8.2), CD8 (B9.11), p24 (clone KC57) (all Immunotech/Beckman Coulter, Marseille, France), CD45 (HI30) (Caltag, Burlingame, Calif.). Intracellular staining for p24 was performed on single cell suspensions from mesenteric lymph nodes and thymus following staining with anti-CD3 antibody. Cells were washed, permeabilized, and fixed by treatment with BD Cytofix/Cytoperm (BD Pharmingen) and stained with anti-p24 antibody in BD Permwash solution (BD Pharmingen) following the manufacturer's instructions. Plasma HIV RNA concentrations were determined by Cobas Amplicor RT-PCR assay (Roche Diagnostics, Basel, Switzerland). Immunohistochemical stainings were performed as previously described (Baenziger et al., 2006). To assess nonspecific binding, tissue from untransplanted and uninfected transplanted mice was stained as controls.
Rag2^−/−γc^−/− mice on a BALB/c background (provided by M. Ito; Central Institute for Experimental Animals, Kawasaki, Japan) were bred and maintained under specific pathogen-free conditions in accordance with the guidelines of the animal facility at the Institute for Research in Biomedicine (Bellinzona) and the Swiss Federal Veterinary Office (Bern). Mouse experiments were reviewed and approved by the Veterinary Commission of the State of Ticino (Bellinzona, Switzerland). CL2 MBP (clodronate) was from Roche Diagnostics (Mannheim, Germany). Preparation of liposomes containing CL2 MBP was done as described previously (68). 6-10 week-old mice received 100 ul of clodronate liposomes intraperitoneally (i.p.) 24 hours prior to irradiation using a single sublethal dose of 4.0 Gray (Gy) from a Cesium 137 source (Biobeam 8000, STS GmbH, Braunschweig, Germany) at 3.75 Gy/min.

HIV-1 [4] = test system: HIV-1
Text: The timing of HIV-1 infection was changed to allow for a stabilization of engraftment prior to assessment of viral replication.
HIV-1 down-regulates cell-surface expression of CD4 (Chen et al., 1996). […] Finally, tissue sections of thymi were directly examined for human T cells (using anti-CD3 antibody) and HIV-1 p24 antigen.
The MLNs are closest to the site of HIV-1 infection (i.p), while the PLNs are further away.
as §1
Rag2^−/−γc^−/− mice on a BALB/c background (provided by M. Ito; Central Institute for Experimental Animals, Kawasaki, Japan) were bred and maintained under specific pathogen-free conditions in accordance with the guidelines of the animal facility at the Institute for Research in Biomedicine (Bellinzona) and the Swiss Federal Veterinary Office (Bern). […] CD4^+ T cell engraftment and maintenance in mice was measured by flow cytometry. […]

cell-associated HIV-1 = test: hCD4+-Rag2-/-γc-/- mice infected with cell-associated HIV-1; type: in vivo
Procedure: Furthermore, the previous infections were initiated with cell-free HIV-1. […] Untransduced (GFP^−) CD4^+ cells from the same donor were cultured side by side and infected with CXCR4-tropic HIV-1 prior to infection of reconstituted mice. […] Peripheral blood was analyzed one, two, and three weeks after infection and mice were sacrificed three weeks after infection (FIG. 71A).

In the case of “hT5Cyp: human TRIM5α fused at serine 322 to human cyclophilin A, SEQ ID NO:12”, the “HIV-1 restriction in further cell lines” value (HIV-1 [1]) was “restricted HIV-1”, the “RT activity in the culture supernatant” value (HIV-1NL4-3 [2]; mixed culture) was “significantly lower” and the “day of peak viral replication” value (HIV-1NL4-3 [2]; mixed culture) was 28 days. For the same substance, the “transduced cells in the culture after HIV-1 infection” value (HIV-1NL4-3 [2]; start <25% transduced) was 75%, the “reduction in mean viral load vs hT5CypH126Q” value (shortened to “reduction in mean viral load”) (HIV-1NL4-3 [3]; Example 4, n=5 and n=4) was 22 fold and the “mean peripheral blood CD45^+ cells” value (HIV-1NL4-3 [3]; four weeks post-infection) was 6.7%. For the same substance, the “percentage CD45^+ cells higher than hT5CypH126Q” value (HIV-1NL4-3 [3]; four weeks post-infection) was 15 fold, the Viral load (HIV-1NL4-3 [3]; individual mice, week 2, listed as wt) was 103208 copies RNA/ml and 46007 copies RNA/ml and 43551 copies RNA/ml and 251320 copies RNA/ml and 66416 copies RNA/ml and 358800 copies RNA/ml and 566835 copies RNA/ml and 3811676 copies RNA/ml and 492800 copies RNA/ml and 27826 copies RNA/ml and the “Peripheral Blood (2 wks. postinfection) CD4” value (HIV-1NL4-3 [3]; individual mice, listed as wt) was 1 percentage of total nucleated cells and 0.44 percentage of total nucleated cells and 0.33 percentage of total nucleated cells and 1.56 percentage of total nucleated cells and 2.7 percentage of total nucleated cells and 7.7 percentage of total nucleated cells and 15.1 percentage of total nucleated cells and 28.3 percentage of total nucleated cells and 1.89 percentage of total nucleated cells and 1.1 percentage of total nucleated cells. The “Peripheral Blood (2 wks. postinfection) CD45” value (HIV-1NL4-3 [3]; individual mice, listed as wt) was 1.08 percentage of nucleated cells and 0.47 percentage of nucleated cells and 0.24 percentage of nucleated cells and 1.64 percentage of nucleated cells and 2.75 percentage of nucleated cells and 7.86 percentage of nucleated cells and 15.6 percentage of nucleated cells and 28.9 percentage of nucleated cells and 2.12 percentage of nucleated cells and 1.16 percentage of nucleated cells, the “Viral load (Corrected for CD4 count)” value (HIV-1NL4-3 [3]; individual mice, listed as wt) was 101231 and 104916 and 192227 and 159325 and 24321 and 47206 and 37382 and 134446 and 260305 and 25410 and the “mean peripheral blood CD4^+ cells” value (HIV-1NL4-3 [3]; two weeks post-infection) was 6%. For the same substance, the “percentage CD4^+ cells higher than hT5CypH126Q” value (HIV-1NL4-3 [3]; two weeks post-infection) was 34 fold, the “p24^+ transduced human T cells” value (HIV-1 [4]; MLN or PLN, CCR5-tropic HIV-1) was “Few if any” and the mean viral load (HIV-1 [4]; n=8 per group) was 1.6×10^5 (+/−1.1×10^5) copies viral RNA/ml plasma. For the same substance, the “down-regulation of cell surface CD4” value (HIV-1 [4]; thymi and lymph nodes) was “prevented the down-regulation of cell surface CD4”, the “p24^+ transduced human T cells” value (HIV-1 [4]; thymi or mesenteric lymph nodes) was “Few if any” and the “p24^+ of total human T cells in the infected thymus” value (cell-associated HIV-1; mouse, in vivo) was 0.9%. For the same substance, the “protection of total CD3^+ T cell numbers in the thymus” value (cell-associated HIV-1; mouse, in vivo) was 3.7 fold, the “CD3^+ T cells in thymus” value (cell-associated HIV-1; n=2) was 2×10^7 and the “reduction in mean viral load” value (cell-associated HIV-1; one week post-infection) was 9.7 fold. For the same substance, the “CD4^+ T cell numbers relative to initial levels” value (cell-associated HIV-1; peripheral blood, three weeks post-infection) was no less than 40%, the “p24^+ of GFP^hi cells” value (cell-associated HIV-1; thymus) was “few” and the “p24^+ of GFP^neg/lo cells” value (cell-associated HIV-1; thymus) was 3.2%. The “reduction in total numbers of GFP^− p24^+ cells vs hT5CypH126Q” value (cell-associated HIV-1; thymus) was greater than 3.3 fold and the “reduction in mean viral load” value (cell-associated HIV-1; two weeks post-infection) was 4.3 fold.
